According to patent publication US20040106545A1, “Compounds and methods for modulating cell adhesion” (priority 1996, published 2004):

Tests used:
[1] = Cytotoxicity, MTT assay, MDA-MB231; type: cell-based, human; conditions: human, MTT assay, read-out: MDA-MB231 Cytotox (IC50)
Procedure, shortened: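 Human primary endothelial cells, fibroblast lines (IAFp2, WI-38) and cancer lines (MDA-MB231, PC-3) receive the CHAVC peptide or the CHGVC control at ≤100 μM. Viability is scored by MTT and DNA synthesis by ^3H-thymidine uptake.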

[2] = Cytotoxicity, MTT assay, HUVEC; type: cell-based; conditions: human, HUVEC (human umbilical vein endothelial cells), read-out: HUVEC Cytotox (IC50)
Protocol: (§1) N—Ac-CHAVC-NH2 (SEQ ID NO:10) and the control peptide N—Ac-CHGVC-NH2 (SEQ ID NO:11) were evaluated for possible cytotoxic effects on human microvascular endothelial (HMVEC; Clonetics), human umbilical vein endothelial (HUVEC; ATCC #CRL-1730), IAFp2 (human fibroblast cell line; Institute Armand-Frapier, Montreal, Quebec), WI-38 (human fibroblast cell line; ATCC #CCL-75), MDA-MB231 (human breast cancer cell line; ATCC #HTB-26), and PC-3 (human prostate cancer cell line; ATCC #CRL-1435) cells utilizing the MTT assay (Plumb et al., Cancer Res. 49:4435-4440, 1989). Neither of the peptides was cytotoxic at concentrations up to and including 100 μM. Similarly, neither of the peptides was capable of inhibiting the proliferation of the above cell lines at concentrations up to 100 μM, as judged by ^3H-thymidine incorporation assays.

[3] = Cytotoxicity, MTT assay, WI-38; type: cell-based; conditions: human, read-out: WI-38 Cytotox (IC50)
Protocol: as §1

[4] = Cytotoxicity, MTT assay, IAFp2; type: cell-based; conditions: human, read-out: IAFp2 Cytotox (IC50)
Protocol: as §1

[5] = target: T1, N-cadherin (Gallus gallus, UniProt P10288); assay: Neurite outgrowth of mouse cerebellar neurons on N-cadherin expressing 3T3 monolayers (Example 2); type: cell-based
T1 construct: expressed in transfected cells; host or cells: 3T3 fibroblasts (monolayer)
T1 sequence (P10288 165-912): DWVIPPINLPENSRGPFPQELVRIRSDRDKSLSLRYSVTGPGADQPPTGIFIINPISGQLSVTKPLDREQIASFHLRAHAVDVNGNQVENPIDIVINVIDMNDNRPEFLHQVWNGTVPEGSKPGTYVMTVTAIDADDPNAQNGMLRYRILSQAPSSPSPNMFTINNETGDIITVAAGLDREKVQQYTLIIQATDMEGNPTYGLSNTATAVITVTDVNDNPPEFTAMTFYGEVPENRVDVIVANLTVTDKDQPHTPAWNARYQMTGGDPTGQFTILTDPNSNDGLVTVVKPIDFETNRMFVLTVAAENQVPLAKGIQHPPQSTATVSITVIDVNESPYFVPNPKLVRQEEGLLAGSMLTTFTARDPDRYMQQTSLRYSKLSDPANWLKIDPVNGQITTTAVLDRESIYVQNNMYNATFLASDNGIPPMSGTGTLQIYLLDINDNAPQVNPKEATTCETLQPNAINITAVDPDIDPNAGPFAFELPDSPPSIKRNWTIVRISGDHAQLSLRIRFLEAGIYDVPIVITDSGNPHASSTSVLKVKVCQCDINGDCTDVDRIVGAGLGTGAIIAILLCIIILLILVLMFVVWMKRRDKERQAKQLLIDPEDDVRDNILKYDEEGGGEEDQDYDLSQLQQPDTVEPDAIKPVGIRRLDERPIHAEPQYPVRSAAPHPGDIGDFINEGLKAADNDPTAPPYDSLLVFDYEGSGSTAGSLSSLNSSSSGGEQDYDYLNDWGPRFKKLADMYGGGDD
Description: Within a representative neurite outgrowth assay, neurons may be cultured on a monolayer of cells (e.g., 3T3) that express N-cadherin. […] For example, neurons may be cultured on monolayers of 3T3 cells transfected with cDNA encoding N-cadherin essentially as described by Doherty and Walsh, Curr. Op. Neurobiol. 4:49-55, 1994; Williams et al., Neuron 13:583-594, 1994; Hall et al., Cell Adhesion and Commun. 3:441-450, 1996; Doherty and Walsh, Mol. Cell. Neurosci. 8:99-111, 1994; and Safell et al., Neuron 18:231-242, 1997. Briefly, monolayers of control 3T3 fibroblasts and 3T3 fibroblasts that express N-cadherin may be established by overnight culture of 80,000 cells in individual wells of an 8-chamber well tissue culture slide. 3000 cerebellar neurons isolated from post-natal day 3 mouse brains may be cultured for 18 hours on the various monolayers in control media (SATO/2% FCS), or media supplemented with various concentrations of the modulating agent or control peptide. The cultures may then be fixed and stained for GAP43 which specifically binds to the neurons and their neurites. The length of the longest neurite on each GAP43 positive neuron may be measured by computer assisted morphometry.
Neurons were cultured on monolayers of 3T3 cells transfected with cDNA encoding N-cadherin essentially as described by Doherty and Walsh, Curr. Op. Neurobiol. 4:49-55, 1994; Williams et al., Neuron 13:583-594, 1994; Hall et al., Cell Adhesion and Commun. 3:441-450, 1996; Doherty and Walsh, Mol. Cell. Neurosci. 8:99-111, 1994; Safell et al., Neuron 18:231-242, 1997. Briefly, monolayers of control 3T3 fibroblasts and 3T3 fibroblasts that express N-cadherin were established by overnight culture of 80,000 cells in individual wells of an 8-chamber well tissue culture slide. […] The length of the longest neurite on each GAP43 positive neuron was then measured by computer assisted morphometry.

Compound | IC50 ([1]; MDA-MB231 cells (human breast cancer cell line)) | IC50 [2] | IC50 ([3]; WI-38 cells (human fibroblast cell line)) | IC50 ([4]; IAFp2 cells (human fibroblast cell line)) | inhibition of neurite outgrowth on 3T3 cells expressing N-cadherin ([5]; 500 μg/mL, 18 hours) | IC50 ([1]; MDA-MB231 breast cancer cell line) | IC50 ([3]; WI-38 fibroblast cell line) | IC50 ([4]; IAFp2 fibroblast cell line) | inhibition of neurite outgrowth on 3T3 cells expressing N-cadherin ([5]; 50 μg/mL)
CC(=O)N[C@H]1CSSC[C@@H](C(N)=O)NC(=O)[C@H](C(C)C)NC(=O)CNC(=O)[C@H](Cc2c[nH]cn2)NC1=O [N—Ac—CHGVC—NH2, reference compound] | > 100 µM | > 100 µM | > 100 µM | > 100 µM | had no effect on this process |  |  |  | 
CC(=O)N[C@H]1CSSC[C@@H](C(N)=O)NC(=O)[C@H](C(C)C)NC(=O)[C@H](C)NC(=O)[C@H](Cc2c[nH]cn2)NC1=O [N—Ac—CHAVC—NH2, N-Ac-Cys-His-Ala-Val-Cys-NH2] |  | > 100 µM |  |  | completely inhibited neurite outgrowth | > 100 µM | > 100 µM | > 100 µM | significantly inhibited neurite outgrowth
